Assay results: patent US11806428B2 (HARM REDUCTION THERAPEUTICS, INC., priority 2011, dated 2023)

How the values were obtained:
clinical = conditions: both, human, plasma
[1] = Prediction of naloxone plasma concentrations with Excel: non-compartmental analysis on mean profiles scaled to the proposed doses; design: species or system human
[2] = Prediction of naloxone plasma concentrations with WinNonlin Modeling: compartmental pharmacokinetic model and simulation; design: species or system human; conditions: 36 h
Method: The corresponding C max and AUCt-values are as follows (for the total time period of 36 h): […]

[3] = Safety assessment (adverse events, clinical laboratory results, vital signs, ECGs) in the 4-way crossover study; format: in vivo, human
[4] = oral administration; cited from earlier work
[5] = intranasal administration
[6] = predicted for 0.4 mg IV, based on 1 mg IV data excluding the outlying subject
[7] = predicted for 0.4 mg IV, based on 1 mg IV data, all subjects
[8] = predicted for 1.2 mg IN, based on 8 mg IN data
[9] = predicted for 1.2 mg IN, based on 16 mg IN data
[10] = predicted for 1.6 mg IN, based on 8 mg IN data
[11] = predicted for 1.6 mg IN, based on 16 mg IN data
[12] = another subject, Day 44, normal before study drug, rated possibly related

C=CCN1CC[C@]23c4c5ccc(O)c4O[C@H]2C(=O)CC[C@@]3(O)[C@H]1C5 [naloxone]
bioavailability (clinical; other: intranasal, 8 mg): 32% | bioavailability (clinical; other: intranasal, 16 mg): 27% | bioavailability (clinical; other: sublingual, 16 mg): ~2% | AUCt [1, 6]: 3.8122 ng·h/mL | Cmax [1, 6]: 2.8817 ng/mL | AUCt [1, 7]: 4.5789 ng·h/mL | Cmax [1, 7]: 4.7352 ng/mL | AUCt [1, 8]: 3.1596 ng·h/mL | Cmax [1, 8]: 1.5352 ng/mL | AUCt [1, 9]: 2.585 ng·h/mL | Cmax [1, 9]: 1.0525 ng/mL | AUCt [1, 10]: 4.2128 ng·h/mL | Cmax [1, 10]: 2.0469 ng/mL | AUCt [1, 11]: 3.4467 ng·h/mL | Cmax [1, 11]: 1.4034 ng/mL | AUCt [2, 8]: 2.8762 ng·h/mL | Cmax [2, 8]: 1.5995 ng/mL | AUCt [2, 9]: 2.1631 ng·h/mL | Cmax [2, 9]: 0.8935 ng/mL | AUCt [2, 10]: 3.835 ng·h/mL | Cmax [2, 10]: 2.1326 ng/mL | AUCt [2, 11]: 2.8841 ng·h/mL | Cmax [2, 11]: 1.1913 ng/mL | treatment-emergent adverse events (TEAEs) ([3]; 1 mg intravenous): 4 TEAEs | treatment-emergent adverse events (TEAEs) ([3]; 8 mg intranasal): 3 TEAEs | treatment-emergent adverse events (TEAEs) ([3]; 16 mg intranasal): 5 TEAEs | treatment-emergent adverse events (TEAEs) ([3]; 16 mg sublingual): 1 TEAE | changes in ECG ([3]; all treatments): No clinically relevant changes in ECG occurred | deaths, serious adverse events, other significant adverse events ([3]; all treatments): no deaths, serious adverse events, or other significant adverse events | markedly abnormal change in blood pressure ([3]; all treatments): one subject | markedly abnormal changes in pulse rate ([3]; all treatments): Three subjects | overall trend in abnormal vital sign changes ([3]; all treatments): No overall trend in abnormal vital sign changes was observed | markedly abnormal high SGPT value [3, 12]: 371 U/l | markedly abnormal high total bilirubin value [3, 12]: 39.33 µmol/L | markedly abnormal low potassium value [3, 12]: 3.3 mmol/L | TEAEs of vasovagal attack ([3]; intranasal application (one after 8 mg, one after 16 mg)): 2 subjects | TEAEs of vasovagal attack ([3]; intravenous bolus 1 mg): 1 subject | markedly abnormal high triglyceride value ([3]; one subject, Day 44, 4.189 mmol/l on Day -9 before study drug): 8.355 mmol/L | oral bioavailability [4]: < 3% | peak plasma concentrations attained as early as (time after dosing) ([5]; earliest): 6 min | time to peak plasma concentrations, median ([5]; median): 18 min
